Measurements taken from patent publication US8410273B2, “Cyclic compound having substituted phenyl group” (Daiichi Sankyo Company, Limited, priority 2009, dated 2013).

Test system: female F344 rats
Assay: Effect on bone density (femur, DXA) after oophorectomy or sham surgery
Format: in vivo
Details: at 3 mg/kg or less, orally once a day, six days a week, six weeks
Method: Eight to 12 week old female F344 rats were purchased from Charles River Laboratories and used in the following experiment. Rats were anesthetized with an intraperitoneal administration of 40 mg/kg of Somnopentyl (Kyoritsu Seiyaku Corporation), and then oophorectomy or sham surgery was performed. From the day after surgery, a suspension of the test compound in a 0.5% methyl cellulose solution (Wako Pure Chemical Industries, Ltd. Cat. No. 133-14255) was orally administered once a day, six days a week. Six weeks after administration, the rats were euthanized by removal of whole blood from the lower abdominal aorta under Somnopentyl anesthesia, and the left and right femur was excised.
After removal of soft tissues, the bone density of the femur thus excised was measured by a DXA apparatus, DCS-600R (Aloka Co., Ltd.). The bone density was assessed in the whole femur as well as in three equal sections of the whole femur, namely the proximal end, the shaft, and the distal end.

Compound	bone density of the femur
Cn1ccc2cc(-c3cncc4ccc(C(N)=O)cc34)ccc21 [Example 33]	significantly increased the bone density
NC(=O)c1ccc2cncc(-c3ccc(Cl)cc3)c2c1 [Example 118]	significantly increased the bone density
NC(=O)c1ccc2cncc(-c3ccc(OCCO)cc3)c2c1 [Example 36]	significantly increased the bone density
NC(=O)c1ccc2cncc(-c3ccc(OCCOC4CCOCC4)cc3)c2n1 [Example 9, 8-{4-[2-(Tetrahydro-2H-pyran-4-yloxy)ethoxy]phenyl}-1,6-naphthyridine-2-carboxamide]	significantly increased the bone density
